Laboratory results taken from ChEMBL document CHEMBL5316322, “Discovery and Characterization of the Topical Soft JAK Inhibitor CEE321 for Atopic Dermatitis” (J Med Chem, 2023).
pIC50: −log10 of the molar value. ≈ marks a conversion by molar mass, not a printed value. Values belong to the molecule of their own block, whether it stands above or below them. Calls of active or inactive are those of the source. The rule behind the calls is not given here.

Columns and labels:
in vitro = conditions: human, liver microsomes
Description: Microsomal stability in human liver microsomes assessed as intrinsic clearance

[1] = target: Tyrosine-protein kinase JAK1 (Homo sapiens, UniProt P23458)
Chain of Tyrosine-protein kinase JAK1 (P23458 whole entry): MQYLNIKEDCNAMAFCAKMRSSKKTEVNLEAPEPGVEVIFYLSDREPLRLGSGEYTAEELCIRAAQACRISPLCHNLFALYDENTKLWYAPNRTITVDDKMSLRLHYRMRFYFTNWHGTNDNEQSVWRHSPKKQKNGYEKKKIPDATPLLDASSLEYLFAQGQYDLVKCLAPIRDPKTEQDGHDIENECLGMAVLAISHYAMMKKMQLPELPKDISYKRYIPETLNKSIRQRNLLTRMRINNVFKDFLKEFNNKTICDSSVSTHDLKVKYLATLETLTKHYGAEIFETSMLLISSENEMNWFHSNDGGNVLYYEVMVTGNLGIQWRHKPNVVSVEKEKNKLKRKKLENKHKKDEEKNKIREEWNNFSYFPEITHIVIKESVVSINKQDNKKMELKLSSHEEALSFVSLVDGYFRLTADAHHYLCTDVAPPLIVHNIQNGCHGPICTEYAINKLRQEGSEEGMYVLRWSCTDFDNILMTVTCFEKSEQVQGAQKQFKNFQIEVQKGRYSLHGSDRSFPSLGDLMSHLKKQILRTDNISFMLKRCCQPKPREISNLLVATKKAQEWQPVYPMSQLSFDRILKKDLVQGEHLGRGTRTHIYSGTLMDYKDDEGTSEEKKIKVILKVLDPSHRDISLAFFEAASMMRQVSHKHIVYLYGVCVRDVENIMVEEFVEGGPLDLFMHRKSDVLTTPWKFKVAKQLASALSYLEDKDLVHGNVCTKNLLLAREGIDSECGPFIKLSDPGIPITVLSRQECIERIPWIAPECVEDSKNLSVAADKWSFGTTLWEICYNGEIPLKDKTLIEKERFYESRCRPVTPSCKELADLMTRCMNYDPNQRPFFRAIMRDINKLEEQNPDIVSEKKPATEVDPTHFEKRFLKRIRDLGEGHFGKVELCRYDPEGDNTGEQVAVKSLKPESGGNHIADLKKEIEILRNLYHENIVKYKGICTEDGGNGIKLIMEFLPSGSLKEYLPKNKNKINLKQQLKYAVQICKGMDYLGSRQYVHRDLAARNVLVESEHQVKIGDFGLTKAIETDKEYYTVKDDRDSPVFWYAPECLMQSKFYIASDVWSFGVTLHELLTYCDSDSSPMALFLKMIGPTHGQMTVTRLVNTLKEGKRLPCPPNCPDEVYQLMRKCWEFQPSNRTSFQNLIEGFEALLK

[2] = target: Tyrosine-protein kinase JAK2 (Homo sapiens, UniProt O60674)
Chain of Tyrosine-protein kinase JAK2 (O60674 whole entry): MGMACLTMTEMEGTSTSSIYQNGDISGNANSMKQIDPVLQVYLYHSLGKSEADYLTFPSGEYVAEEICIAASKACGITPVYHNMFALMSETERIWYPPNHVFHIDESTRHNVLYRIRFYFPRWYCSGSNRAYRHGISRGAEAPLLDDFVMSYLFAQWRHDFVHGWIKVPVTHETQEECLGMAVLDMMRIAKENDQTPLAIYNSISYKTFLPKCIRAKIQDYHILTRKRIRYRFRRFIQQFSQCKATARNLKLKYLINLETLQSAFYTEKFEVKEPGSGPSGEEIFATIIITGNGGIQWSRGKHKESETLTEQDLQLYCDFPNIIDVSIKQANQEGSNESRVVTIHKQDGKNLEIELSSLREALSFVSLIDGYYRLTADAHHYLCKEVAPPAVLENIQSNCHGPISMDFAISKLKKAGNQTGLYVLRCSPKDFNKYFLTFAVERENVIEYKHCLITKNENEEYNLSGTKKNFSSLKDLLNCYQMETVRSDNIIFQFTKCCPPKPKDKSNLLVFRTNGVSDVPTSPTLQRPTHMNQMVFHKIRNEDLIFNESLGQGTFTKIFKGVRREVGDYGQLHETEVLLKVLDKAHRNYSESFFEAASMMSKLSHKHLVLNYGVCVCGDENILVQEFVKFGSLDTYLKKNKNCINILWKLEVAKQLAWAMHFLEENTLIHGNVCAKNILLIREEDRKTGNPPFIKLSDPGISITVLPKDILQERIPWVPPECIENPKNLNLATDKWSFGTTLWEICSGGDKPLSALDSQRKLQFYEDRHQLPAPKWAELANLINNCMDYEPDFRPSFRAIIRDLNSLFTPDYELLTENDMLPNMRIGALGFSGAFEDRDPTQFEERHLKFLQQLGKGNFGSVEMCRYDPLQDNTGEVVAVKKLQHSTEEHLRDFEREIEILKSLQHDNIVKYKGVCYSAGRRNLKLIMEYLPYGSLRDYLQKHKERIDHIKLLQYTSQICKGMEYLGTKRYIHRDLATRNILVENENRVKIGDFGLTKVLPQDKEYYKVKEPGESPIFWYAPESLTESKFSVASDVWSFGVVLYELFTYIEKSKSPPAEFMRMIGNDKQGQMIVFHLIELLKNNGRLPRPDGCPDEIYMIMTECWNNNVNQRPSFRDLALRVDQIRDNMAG

[3] = target: T1, Tyrosine-protein kinase JAK3 (Homo sapiens, UniProt P52333)
T1 sequence (P52333 whole entry): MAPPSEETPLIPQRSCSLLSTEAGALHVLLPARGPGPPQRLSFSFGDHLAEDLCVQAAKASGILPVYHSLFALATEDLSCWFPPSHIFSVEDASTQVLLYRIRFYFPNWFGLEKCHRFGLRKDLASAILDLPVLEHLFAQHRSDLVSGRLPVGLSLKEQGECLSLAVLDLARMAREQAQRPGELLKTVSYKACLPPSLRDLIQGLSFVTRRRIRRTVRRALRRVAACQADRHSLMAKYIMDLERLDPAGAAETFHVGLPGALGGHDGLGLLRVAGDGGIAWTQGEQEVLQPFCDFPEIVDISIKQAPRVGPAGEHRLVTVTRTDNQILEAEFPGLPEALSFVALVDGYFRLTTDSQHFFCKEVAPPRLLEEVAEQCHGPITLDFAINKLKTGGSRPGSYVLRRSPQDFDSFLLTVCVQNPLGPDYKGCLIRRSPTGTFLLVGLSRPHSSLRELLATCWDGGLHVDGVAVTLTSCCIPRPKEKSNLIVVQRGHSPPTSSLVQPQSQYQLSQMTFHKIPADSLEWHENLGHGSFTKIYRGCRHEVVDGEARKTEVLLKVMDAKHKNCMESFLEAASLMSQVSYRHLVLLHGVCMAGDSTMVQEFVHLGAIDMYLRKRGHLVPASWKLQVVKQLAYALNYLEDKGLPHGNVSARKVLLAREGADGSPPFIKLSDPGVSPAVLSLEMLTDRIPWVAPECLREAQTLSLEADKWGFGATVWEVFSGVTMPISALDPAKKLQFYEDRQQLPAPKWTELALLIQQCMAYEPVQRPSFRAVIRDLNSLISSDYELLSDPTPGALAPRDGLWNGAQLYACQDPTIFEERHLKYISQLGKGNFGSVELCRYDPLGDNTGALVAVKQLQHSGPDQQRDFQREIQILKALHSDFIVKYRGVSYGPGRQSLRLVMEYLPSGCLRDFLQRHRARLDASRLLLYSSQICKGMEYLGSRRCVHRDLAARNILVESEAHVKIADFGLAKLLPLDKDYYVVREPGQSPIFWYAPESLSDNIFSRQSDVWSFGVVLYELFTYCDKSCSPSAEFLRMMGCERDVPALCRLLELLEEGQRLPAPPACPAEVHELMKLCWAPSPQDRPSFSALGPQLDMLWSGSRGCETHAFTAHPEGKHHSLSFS

JAK3/JAK1 [4] = target: T2, JAK3/JAK1 (Homo sapiens, UniProt P23458+P52333); format: cell-based, M07E
T2 sequence (P23458 whole entry, one chain of several): as the sequence (P23458 whole entry) above
Description: Inhibition of JAK1/JAK3 in human M07E cells assessed as reduction of IL-15 stimulated STAT phosphorylation preincubated for 30 mins followed by IL-15 stimulation and measured after 15 mins by flow cytometry analysis

JAK1/TYK2 = JAK1/TYK2 (Homo sapiens, UniProt P23458+P29597); format: cell-based, M07E
Chain of JAK1/TYK2 (P23458 whole entry): as above
Chain of JAK1/TYK2 (P29597 whole entry): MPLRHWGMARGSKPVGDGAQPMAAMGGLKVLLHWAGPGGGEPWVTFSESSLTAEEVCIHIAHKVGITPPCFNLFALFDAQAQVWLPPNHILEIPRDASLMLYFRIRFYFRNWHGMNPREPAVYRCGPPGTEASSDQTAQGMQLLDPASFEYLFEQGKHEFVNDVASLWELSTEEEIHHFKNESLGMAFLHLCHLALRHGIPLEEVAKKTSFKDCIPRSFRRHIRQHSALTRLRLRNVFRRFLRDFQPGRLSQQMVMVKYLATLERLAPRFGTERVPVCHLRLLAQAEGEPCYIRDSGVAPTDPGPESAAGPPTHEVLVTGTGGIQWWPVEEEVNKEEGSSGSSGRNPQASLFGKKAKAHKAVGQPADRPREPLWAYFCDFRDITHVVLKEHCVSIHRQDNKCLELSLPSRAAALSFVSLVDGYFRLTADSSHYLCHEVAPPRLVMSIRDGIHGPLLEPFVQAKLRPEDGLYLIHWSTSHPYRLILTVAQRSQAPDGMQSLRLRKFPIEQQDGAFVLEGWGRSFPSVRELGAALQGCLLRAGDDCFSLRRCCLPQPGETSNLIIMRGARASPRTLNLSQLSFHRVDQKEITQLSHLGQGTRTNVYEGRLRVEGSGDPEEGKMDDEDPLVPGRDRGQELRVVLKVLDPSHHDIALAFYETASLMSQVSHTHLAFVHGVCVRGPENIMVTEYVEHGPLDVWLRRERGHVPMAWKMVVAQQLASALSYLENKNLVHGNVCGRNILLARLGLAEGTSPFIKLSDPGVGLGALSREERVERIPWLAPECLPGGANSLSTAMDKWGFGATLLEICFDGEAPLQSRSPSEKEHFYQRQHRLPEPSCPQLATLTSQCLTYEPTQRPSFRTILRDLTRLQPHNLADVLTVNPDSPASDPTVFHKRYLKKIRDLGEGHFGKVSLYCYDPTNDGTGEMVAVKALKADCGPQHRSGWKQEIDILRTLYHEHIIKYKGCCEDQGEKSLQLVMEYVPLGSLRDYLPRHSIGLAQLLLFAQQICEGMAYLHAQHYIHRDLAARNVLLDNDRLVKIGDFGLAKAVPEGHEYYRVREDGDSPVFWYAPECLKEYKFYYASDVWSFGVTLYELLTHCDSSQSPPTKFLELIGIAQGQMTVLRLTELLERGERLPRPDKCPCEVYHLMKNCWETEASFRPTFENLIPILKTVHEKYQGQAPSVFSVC
Description: Inhibition of JAK1/TYK2 in human M07E cells assessed as reduction of IFN alpha stimulated STAT phosphorylation preincubated for 30 mins followed by IFN alpha stimulation and measured after 15 mins by flow cytometry method

JAK3/JAK1 [5] = target: T2, JAK3/JAK1; format: tissue-based, Blood
Description: Inhibition of JAK1/JAK3 in human blood assessed as reduction of IL-2 stimulated STAT phosphorylation preincubated for 30 mins followed by IL-2 stimulation and measured after 15 mins by flow cytometry method

[6] = Lipophilicity, log D of the compound; format: physicochemical; conditions: octanol/water
[7] = target: Non-receptor tyrosine-protein kinase TYK2 (Homo sapiens, UniProt P29597)
Chain of Non-receptor tyrosine-protein kinase TYK2 (P29597 whole entry): as above
Description: Inhibition of TYK2 (unknown origin) by caliper technology

[8] = Plasma protein binding in human; format: ADME, cell-free; conditions: read-out: PPB
[9] = Metabolic stability in minipig hepatocytes assessed as intrinsic clearance; format: ADME, cell-based, Sus scrofa domesticus, Hepatocyte; conditions: pig
[10] = Microsomal stability in rat liver microsomes assessed as intrinsic clearance; format: ADME, Microsome
[11] = Microsomal stability in minipig liver microsomes assessed as intrinsic clearance; format: ADME, Sus scrofa domesticus, Microsome; conditions: pig
[12] = Metabolic stability in rat hepatocytes assessed as intrinsic clearance; format: ADME, cell-based, Hepatocyte
[13] = Metabolic stability in human hepatocytes assessed as intrinsic clearance; format: ADME, cell-based, Hepatocyte
[14] = Clearance in rat; format: ADME; conditions: in vivo
[15] = Half life in rat; format: ADME; conditions: in vivo
[16] = Clearance in minipig; format: ADME, Sus scrofa domesticus; conditions: pig, in vivo
[17] = Half life in minipig; format: ADME, Sus scrofa domesticus; conditions: pig, in vivo
[18] = target: Mitogen-activated protein kinase kinase kinase kinase 4 (Homo sapiens, UniProt O95819); assay: Inhibition of MAP4K4 (unknown origin) by caliper microfluidic mobility shift technology
[19] = target: Glycogen synthase kinase-3 beta (Homo sapiens, UniProt P49841); assay: Inhibition of GSK3B (unknown origin) by caliper microfluidic mobility shift technology
Chain of Glycogen synthase kinase-3 beta (P49841 whole entry): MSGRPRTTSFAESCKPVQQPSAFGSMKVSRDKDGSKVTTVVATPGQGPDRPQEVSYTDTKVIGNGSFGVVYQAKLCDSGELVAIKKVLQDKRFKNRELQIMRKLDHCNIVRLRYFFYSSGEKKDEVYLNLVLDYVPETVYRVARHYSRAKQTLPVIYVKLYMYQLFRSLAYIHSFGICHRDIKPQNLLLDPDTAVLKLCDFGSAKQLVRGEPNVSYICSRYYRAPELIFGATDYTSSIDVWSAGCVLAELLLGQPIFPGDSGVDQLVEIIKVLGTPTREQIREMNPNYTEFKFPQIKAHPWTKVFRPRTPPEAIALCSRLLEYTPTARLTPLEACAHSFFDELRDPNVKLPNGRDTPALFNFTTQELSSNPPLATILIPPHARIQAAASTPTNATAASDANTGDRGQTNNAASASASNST

[20] = […] in mouse 3T3 cells by neutral red uptake assay; format: toxicity, cell-based; conditions: nih3t3
[21] = target: T3, Janus Kinase (JAK) (Homo sapiens) (UniProt P52333+P23458+O60674+P29597); assay: Inhibition of JAK in human skin assessed as reduction in TARC release at 10 uM incubated for 24 hrs in the presence of IL4/IL13 by MSD analysis relative to control; format: tissue-based; conditions: Skin of body
T3 sequence (O60674 whole entry, looked up, one chain of several): as the sequence (O60674 whole entry) above
T3 sequence (P23458 whole entry, looked up, one chain of several): as the sequence (P23458 whole entry) above
T3 sequence (P29597 whole entry, looked up, one chain of several): as the sequence (P29597 whole entry) above

[22] = target: T3, Janus Kinase (JAK) (Homo sapiens); assay: Inhibition of JAK in human skin assessed as reduction in TARC release at 1 uM incubated for 24 hrs in the presence of IL4/IL13 by MSD analysis relative to control; format: tissue-based; conditions: Skin of body
Homo sapiens [23] = assay: Inhibition of IL4/IL13 stimulated TARC gene expression in human fresh skin epidermal explant Franz cell model administered topically to human skin epidermis preincubated with compound overnight followed by IL4/IL13 stimulation and measured after 24 hrs by qRT-PCR analysis; format: functional, tissue-based; conditions: Skin of body, route top, time 32.0 hrs
Homo sapiens [24] = assay: Inhibition of IL4/IL13 stimulated MMP12 gene expression in human fresh skin epidermal explant Franz cell model administered topically to human skin epidermis preincubated with compound overnight followed by IL4/IL13 stimulation and measured after 24 hrs by qRT-PCR analysis; format: functional, tissue-based; conditions: Skin of body, route top, time 32.0 hrs
Homo sapiens [25] = assay: Inhibition of IL4/IL13 stimulated Eotaxin 3 gene expression in human fresh skin epidermal explant Franz cell model administered topically to human skin epidermis preincubated with compound overnight followed by IL4/IL13 stimulation and measured after 24 hrs by qRT-PCR analysis; format: functional, tissue-based; conditions: Skin of body, route top, time 32.0 hrs
[26] = Aqueous solubility of the compound at pH 6.8; format: physicochemical
[27] = target: T4, Signal transducer and activator of transcription 6 (Homo sapiens) (UniProt P42226); assay: Inhibition of IL4/IL13 induced STAT6 phosphorylation in topically administered human skin assessed as reduction in phosphorylated STAT6 level preincubated with compound overnight followed by IL4/1L13 stimulation and measured after 3 hrs by Western blot analysis; format: tissue-based; conditions: Skin of body, route top, time 11.0 hrs
T4 sequence (whole entry): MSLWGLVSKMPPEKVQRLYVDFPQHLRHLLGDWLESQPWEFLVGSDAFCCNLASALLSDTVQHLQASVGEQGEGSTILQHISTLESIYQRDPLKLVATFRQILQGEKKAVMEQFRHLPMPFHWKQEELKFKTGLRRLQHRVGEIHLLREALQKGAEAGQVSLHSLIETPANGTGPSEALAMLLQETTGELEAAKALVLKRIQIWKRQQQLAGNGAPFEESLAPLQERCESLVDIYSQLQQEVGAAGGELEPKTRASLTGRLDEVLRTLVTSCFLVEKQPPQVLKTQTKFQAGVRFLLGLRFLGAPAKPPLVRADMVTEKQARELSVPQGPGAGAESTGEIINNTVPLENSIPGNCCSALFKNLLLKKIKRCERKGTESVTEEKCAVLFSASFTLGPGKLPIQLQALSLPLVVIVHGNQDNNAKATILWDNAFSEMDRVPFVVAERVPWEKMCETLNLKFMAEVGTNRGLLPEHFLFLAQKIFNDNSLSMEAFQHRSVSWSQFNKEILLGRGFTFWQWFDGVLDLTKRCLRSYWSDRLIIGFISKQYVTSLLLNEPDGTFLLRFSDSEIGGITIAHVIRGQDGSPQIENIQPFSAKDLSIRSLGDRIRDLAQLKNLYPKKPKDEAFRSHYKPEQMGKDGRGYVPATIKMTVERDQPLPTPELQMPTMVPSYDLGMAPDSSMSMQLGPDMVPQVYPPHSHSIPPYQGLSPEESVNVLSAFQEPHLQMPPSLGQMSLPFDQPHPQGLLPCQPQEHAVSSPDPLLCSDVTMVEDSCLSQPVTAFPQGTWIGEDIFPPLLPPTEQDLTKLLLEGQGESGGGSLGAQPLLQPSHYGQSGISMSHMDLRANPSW

Homo sapiens [28] = assay: Inhibition of IL4/IL13 induced MMP12 gene expression in topically administered human skin preincubated with compound overnight followed by IL4/IL13 stimulation and measured after 3 hrs by qRT-PCR analysis; format: functional, tissue-based; conditions: Skin of body, route top, time 11.0 hrs
[29] = Drug exposure in topically dosed minipig and measured for 14 days; format: ADME, organism-based, Sus scrofa domesticus; conditions: pig, in vivo, topical_or_ocular, 336 h; route top, time 14 day
[30] = Drug excretion in iv dosed bile duct cannulated rat urine assessed as unchanged drug; format: ADME, organism-based; conditions: read-out: Drug excretion
[31] = Drug excretion in iv dosed bile duct cannulated rat bile assessed as unchanged drug; format: ADME, organism-based; conditions: read-out: Drug excretion
[32] = Drug concentration in topically administered human skin epidermis by MALDI-IMS analysis; format: ADME, tissue-based; conditions: topical_or_ocular, route top, read-out: Drug uptake
[33] = Drug uptake in topically administered human skin at 0.5 mm of depth by MALDI-IMS analysis; format: ADME, tissue-based, Skin of body; conditions: topical or ocular, route top, read-out: Drug uptake
[34] = Drug uptake in topically administered human skin at 1 mm of depth by MALDI-IMS analysis; format: ADME, tissue-based, Skin of body; conditions: topical or ocular, route top, read-out: Drug uptake

Structure (SMILES): CC[C@@H]1CN(C(=O)NCC(F)(F)F)C[C@@H]1c1cnc2cnc3[nH]ccc3n12 [UPADACITINIB]
- microsomal CLint (in vitro): < 25 µL/min/mg

Structure (SMILES): N#CC[C@H](C1CCCC1)n1cc(-c2ncnc3[nH]ccc23)cn1 [RUXOLITINIB]
- microsomal CLint (in vitro): 40 µL/min/mg

Structure (SMILES): CCS(=O)(=O)N1CC(CC#N)(n2cc(-c3ncnc4[nH]ccc34)cn2)C1 [BARICITINIB]
- microsomal CLint (in vitro): < 25 µL/min/mg

Structure (SMILES): NC(=O)c1cnc(Nc2ccccn2)cc1Nc1ccccc1Cl
- pIC50 [1]: 7.66
- pIC50 [2]: 7.57
- pIC50 [3]: 8.00
- pIC50 (JAK3/JAK1 [4]): 7.39
- pIC50 (JAK1/TYK2): 7.08
- pIC50 (JAK3/JAK1 [5]): 6.25
- logD [6]: 3.7
- fraction unbound [8]: < 0.01
- pIC50 [7]: 7.96
- microsomal CLint (in vitro): 227 µL/min/mg

Structure (SMILES): Cn1cc(Nc2nccc(N3CC4CCC(C3)N4C(=O)[C@@H]3CC3(F)F)n2)cn1
- microsomal CLint (in vitro): < 25 µL/min/mg

Now from value to molecule, other results behind:

- pIC50 [1]: 7.85
- pIC50 [2]: 7.85
- pIC50 [3]: 7.74
- pIC50 (JAK3/JAK1 [4]): 7.07
- pIC50 (JAK1/TYK2): 7.48
- pIC50 (JAK3/JAK1 [5]): 6.00
- logD [6]: 3.7
- pIC50 [7]: 7.82
- microsomal CLint (in vitro): 179 µL/min/mg
Structure (SMILES): COc1ccccc1Nc1cc(Nc2cccc(C)n2)ncc1C(N)=O

- pIC50 [1]: 7.54
- pIC50 [2]: 7.54
- pIC50 [3]: 7.41
- pIC50 (JAK3/JAK1 [4]): 7.18
- pIC50 (JAK1/TYK2): 7.29
- pIC50 (JAK3/JAK1 [5]): 6.31
- logD [6]: 2.4
- pIC50 [7]: 7.72
- microsomal CLint (in vitro): 127 µL/min/mg
Structure (SMILES): COc1ccccc1Nc1cc(Nc2cccnn2)ncc1C(N)=O

- pIC50 [1]: 8.05
- pIC50 [2]: 8.10
- pIC50 [3]: 7.96
- pIC50 (JAK3/JAK1 [4]): 7.35
- pIC50 (JAK1/TYK2): 7.51
- pIC50 (JAK3/JAK1 [5]): 6.47
- logD [6]: 3.4
- pIC50 [7]: 8.22
- microsomal CLint (in vitro): 210 µL/min/mg
Structure (SMILES): COc1ccccc1Nc1cc(Nc2ccccn2)ncc1C(N)=O

- CLH [9]: 38 mL·min/g
- pIC50 [1]: 7.30
- pIC50 [2]: 7.32
- pIC50 [3]: 7.23
- pIC50 (JAK3/JAK1 [4]): 7.27
- pIC50 (JAK1/TYK2): 7.07
- pIC50 (JAK3/JAK1 [5]): 5.63
- logD [6]: 4.3
- fraction unbound [8]: < 0.01
- CLH [10]: 204 mL·min/g
- CLH [11]: 67 mL·min/g
- CLH [12]: 94 mL·min/g
- CLH [13]: 47 mL·min/g
- clearance [14]: 82 mL/min/kg
- half-life [15]: 30 min
- CL [16]: 52 mL/min/g
- half-life [17]: 60 min
- pIC50 [18]: 6.96
- pIC50 [19]: 6.42
- inhibition [21]: 100%
- inhibition [22]: 74%
- solubility [26]: 0.2 µM (≈ 0.0708 µg/mL)
- inhibition [27]: Active
- Drug uptake [29]: < 1 nM
- dose excreted [30]: 1.3%
- dose excreted [31]: < 1%
- concentration [32]: 13 µM
- concentration at 500 µM [33]: 3.51 µM
- concentration at 1000 µM [34]: 1.68 µM
- pIC50 [7]: 7.30
- microsomal CLint (in vitro): 166 µL/min/mg
Structure (SMILES): Cc1cccc(Nc2cc(Nc3ccccc3Cl)c(C(N)=O)cn2)n1
- Activity [20]: Non-Toxic
- inhibition (Homo sapiens [23]): Active
- inhibition (Homo sapiens [24]): Active
- inhibition (Homo sapiens [25]): Active
- inhibition (Homo sapiens [28]): Active

- microsomal CLint (in vitro): < 25 µL/min/mg
Structure (SMILES): C[C@H]1CN(C(=O)CC#N)[C@]12CCN(c1ncnc3[nH]ccc13)C2 [DELGOCITINIB]
